From publication PMC11111408, “Concurrent inhibition of oncogenic and wild-type RAS-GTP for cancer therapy” (Nature, 2024) come the findings set out here.

For the test, the target named is KRAS^G12S (Homo sapiens, UniProt P01116+P62937, G12S). In words: Cellular RAS–RAF (CRAF RBD) disruption, nano-BRET in U2OS cells. It counts as cell-based. On the set-up: expressed in transfected cells; host or cells: U2OS PPIA-KO. Conditions: (95% CI). From the text:
KRAS4B, or other small GTPases, containing the indicated mutations were cloned in pNLF-N or pHTN plasmids for expression with an N-terminal nanoluciferase or HaloTag fusion, respectively. […] The following day, the cells were collected by Trypsin and reseeded in a white tissue culture-treated 96-well plate in OptiMem phenol red-free medium (Gibco) containing 4% FBS and a 1:1,000 dilution of NanoBRET 618 HaloTag ligand (Promega). For endpoint concentration response curves, vivazine nanoluciferase substrate was added to 1× concentration in OptiMem phenol red-free medium with 4% FBS. Varying concentrations of inhibitor were added and incubated for 1 or 4 h before the nano-BRET signal was measured on a Perkin Elmer Envision plate reader. For kinetic assays, endurazine nanoluciferase substrate was used in place of vivazine, and the plate was placed in a Cytation5 multi-mode reader pre-equilibrated to 37 °C and 5% CO2.

Take `CCn1c(-c2cc(N3CCN(C4CC4)CC3)cnc2[C@H](C)OC)c2c3cc(ccc31)-c1csc(n1)C[C@H](NC(=O)[C@H]1[C@@H]3COC[C@@H]31)C(=O)N1CCC[C@H](N1)C(=O)OCC(C)(C)C2` [RMC-7977]: the EC50 (in general, the concentration giving half of the maximal effect) worked out at 15.1 nM.
